Experimental data as given in patent publication US9345793B2, “Compounds for binding to the platelet specific glycoprotein IIB/IIIA and their use for imaging of thrombi” (PIRAMAL IMAGING SA, priority 2011, dated 2016).
Where two headings read alike, the source gives them in different places.

Target: human GPIIb/IIIa receptor (Homo sapiens (Human), UniProt P05106+P08514)
Experiment: Affinity assay: displacement of tritiated reference compound from immobilized purified GPIIb/IIIa
Format: binding
Procedure: Affinity assay: In the first step human GPIIb/IIIa purified from human platelets was immobilized on a 96-well solid plate. After 48 hours the plates were washed and the unspecific binding sites were blocked with Roti®-Block. 2. In the next step, the plates were simultaneously incubated with a tritium labeled known GPIIb/IIIa binder (^3H) mixed with increasing concentrations of the novel small molecule compounds (inhibitor, ^19F). The higher the affinity of the inhibitor, the lower the bound fraction of the tritiated known GPIIb/IIIa binder (^3H) was. The fraction of tritiated compound (^3H), which is not displaced by inhibitor, was measured in a microplate scintillation counter.
Purified human glycoprotein IIb/IIIa (20 mM Tris-HCl, 0.1 M NaCl, 0.1% Triton X-100, 1 mM CaCl2, 0.05% NaN3, 50% Glycerol, pH 7.4) was purchased from Enzyme Research Laboratories Inc. (South Bend, Ind.). The GPIIb/IIIa receptor was diluted in phosphate-buffered saline (Dulbecco's Phosphate Buffered Saline (D-PBS(+)) with calcium and magnesium, GIBCO®, Invitrogen) with 0.01% bovine serum albumin (albumin from bovine serum—lyophilized powder, ≧96%, Sigma).
The GPIIb/IIIa receptor was immobilized 48 hours at least (100 μL per well, 48 to maximum 96 hours) on a 96-well solid plate (Immuno Plate MaxiSorp™, Nunc, Roskilde, Denmark) at 277 K to 280 K and at a concentration of 0.1 μg per well to 1 μg per well. As negative control one row of the plate (n=8) was incubated just with 2% bovine serum albumin (200 μper well, albumin from bovine serum—lyophilized powder, […], Sigma, diluted in D-PBS(+)). After washing three times with the wash buffer (230 μL per well, Dulbecco's Phosphate Buffered Saline (D-PBS (−)) contains no calcium or magnesium, GIBCO®, Invitrogen) residual exposed plastic and unspecific binding sites were blocked by incubating the plate with a special blocking solution (200 μL per well, Roti®-Block, Carl Roth GmbH Co KG, Karlsruhe) containing 2% bovine serum albumin (Albumin from bovine serum—lyophilized powder, ≧96%, Sigma) 1 hour at room temperature.
After washing three times with the wash buffer 50 μL of tritiated reference compound (60 nM, ^3H-labeled compound) and 50 μL of novel compound (inhibitor, ^19F) were simultaneously added to each well and incubated for 1 hour at room temperature. Several concentrations of each novel inhibitor (0.1, 1, 2, 5, 10, 20 50, 100, 200, 500, 1000, 2000, 5000, 10000 and 20000 nM) were investigated. At each concentration of inhibitor a fourfold determination was performed.
The maximum value of tritiated reference compound was determined without addition of inhibitor (n=8). To exclude unspecific binding of ^3H-reference compound wells without glycoprotein receptors were used as negative controls (n=12, identically treated just without GP IIb/IIIa receptors).
After one hour the plate was washed three times with phosphate-buffered saline (200 μL per well, Dulbecco's Phosphate Buffered Saline (D-PBS(+)), GIBCO®, Invitrogen). Following 140 μL of liquid scintillation cocktail (MicroScint™ 40 aqueous, Perkin Elmer) was added to each well. After 15 min at room temperature the plates were measured at the microplate scintillation counter (TopCount NXT v2.13, Perkin Elmer, Packard Instrument Company).
In the first step human glycoprotein IIb/IIIa, which is purified from human platelets, was immobilized on a 96-well solid plate. After 48 hours at least the plates were washed and the unspecific binding sites were blocked with Roti®-Block. In the next step, the plates were simultaneously incubated with a tritium labeled reference compound and the novel small molecule compound (inhibitor). The higher the affinity of the inhibitor, the smaller is the bound fraction of reference compound. The fraction of tritiated reference compound, which is not displaced by inhibitor, was measured at a microplate scintillation counter.

[1] = 19F compounds vs 60 nM 3H-labeled reference compound, 1 hour at room temperature, read-out: IC50 human
[2] = values repeated beside the 18F-compound, read-out: IC50 human (corresponding 19F-compound, Table 2)

Chain of human GPIIb/IIIa receptor (P08514 32-887): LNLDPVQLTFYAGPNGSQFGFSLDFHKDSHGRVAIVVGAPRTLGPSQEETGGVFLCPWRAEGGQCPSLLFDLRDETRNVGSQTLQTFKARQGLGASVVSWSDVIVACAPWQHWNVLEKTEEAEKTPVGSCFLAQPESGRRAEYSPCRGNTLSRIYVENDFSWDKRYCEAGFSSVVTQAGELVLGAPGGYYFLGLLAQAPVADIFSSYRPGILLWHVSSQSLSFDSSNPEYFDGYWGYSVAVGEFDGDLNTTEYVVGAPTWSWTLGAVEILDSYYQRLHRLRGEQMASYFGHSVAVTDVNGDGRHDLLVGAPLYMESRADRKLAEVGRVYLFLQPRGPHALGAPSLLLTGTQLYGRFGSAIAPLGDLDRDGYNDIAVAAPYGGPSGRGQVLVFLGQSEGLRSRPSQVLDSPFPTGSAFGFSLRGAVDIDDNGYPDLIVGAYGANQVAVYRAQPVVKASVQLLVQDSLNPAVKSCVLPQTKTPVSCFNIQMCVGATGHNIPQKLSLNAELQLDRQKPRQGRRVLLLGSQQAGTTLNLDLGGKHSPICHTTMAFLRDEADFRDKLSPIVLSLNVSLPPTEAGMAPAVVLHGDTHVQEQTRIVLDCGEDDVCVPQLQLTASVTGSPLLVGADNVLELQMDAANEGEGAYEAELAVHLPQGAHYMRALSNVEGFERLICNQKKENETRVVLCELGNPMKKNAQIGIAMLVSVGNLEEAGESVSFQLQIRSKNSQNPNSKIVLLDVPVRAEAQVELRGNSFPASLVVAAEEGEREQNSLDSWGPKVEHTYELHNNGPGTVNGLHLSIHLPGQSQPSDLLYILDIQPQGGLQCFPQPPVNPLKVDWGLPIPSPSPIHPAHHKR
Chain of human GPIIb/IIIa receptor (P08514 891-1039 partner): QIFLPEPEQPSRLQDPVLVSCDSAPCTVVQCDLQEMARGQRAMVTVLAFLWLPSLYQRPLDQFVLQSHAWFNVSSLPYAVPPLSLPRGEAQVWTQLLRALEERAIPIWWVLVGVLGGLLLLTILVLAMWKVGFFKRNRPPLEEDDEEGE
Chain of human GPIIb/IIIa receptor (P05106 27-788): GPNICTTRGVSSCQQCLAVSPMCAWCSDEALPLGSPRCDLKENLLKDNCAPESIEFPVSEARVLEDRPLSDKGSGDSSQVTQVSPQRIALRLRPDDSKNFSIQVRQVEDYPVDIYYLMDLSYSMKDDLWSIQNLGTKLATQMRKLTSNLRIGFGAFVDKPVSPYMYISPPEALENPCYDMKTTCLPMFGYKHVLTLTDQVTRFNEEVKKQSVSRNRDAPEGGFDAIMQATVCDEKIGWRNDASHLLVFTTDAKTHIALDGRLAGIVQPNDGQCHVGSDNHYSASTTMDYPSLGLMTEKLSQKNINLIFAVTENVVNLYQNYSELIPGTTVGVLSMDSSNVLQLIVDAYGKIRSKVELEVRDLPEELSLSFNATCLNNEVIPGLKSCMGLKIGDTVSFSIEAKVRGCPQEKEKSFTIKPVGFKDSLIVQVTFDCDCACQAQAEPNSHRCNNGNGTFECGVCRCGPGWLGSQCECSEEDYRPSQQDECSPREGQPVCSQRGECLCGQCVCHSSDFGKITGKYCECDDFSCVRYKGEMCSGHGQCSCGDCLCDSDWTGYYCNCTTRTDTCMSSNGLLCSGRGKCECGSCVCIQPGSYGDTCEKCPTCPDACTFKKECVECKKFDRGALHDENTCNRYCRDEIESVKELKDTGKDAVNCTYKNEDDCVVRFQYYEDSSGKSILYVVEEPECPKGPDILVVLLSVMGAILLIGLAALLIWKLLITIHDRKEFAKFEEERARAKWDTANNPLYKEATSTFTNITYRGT

Row | IC50 [1] | IC50 [2] | SMILES
1 | 7 nM |  | O=C(O)C[C@H](NC(=O)[C@@H]1CCCN(C(=O)CCC2CCNCC2)C1)c1cncc(C=Cc2cccc(OCCF)c2)c1 (mixture of isomers) [Example 20, (E/Z)(3S)-3-(5-{2-[3-(2-Fluoroethoxy)phenyl]ethenyl}pyridin-3-yl)-3-[({(3R)-1-[3-(piperidin-4-yl)propanoyl]piperidin-3-yl}carbonyl)amino]propanoic acid]
2 | 8 nM |  | N#Cc1cc(COc2cncc([C@@H](CC(=O)O)NC(=O)[C@H]3CCCN(C(=O)CCC4CCNCC4)C3)c2)ccc1F (stereo in doubt) [Example 12, (3R)-3-{5-[(3-Cyano-4-fluorobenzyl)oxy]pyridin-3-yl}-3-[({(3S)-1-[3-(piperidin-4-yl)propanoyl]piperidin-3-yl}carbonyl)amino]propanoic acid]
3 | 29 nM | 29 nM | O=C(O)C[C@H](NC(=O)[C@@H]1CCCN(C(=O)CCC2CCNCC2)C1)c1ccc(OCCF)cc1 [Example 2, (3S)-3-[4-(2-Fluoroethoxy)phenyl]-3-[({(3R)-1-[3-(piperidin-4-yl)propanoyl]piperidin-3-yl}carbonyl)amino]propanoic acid]
4 | 84 nM |  | O=C(O)C[C@H](NC(=O)[C@@H]1CCCN(C(=O)CCC2CCNCC2)C1)c1cccc(OCCOCCOCCF)c1 [Example 4, (3S)-3-(3-{2-[2-(2-Fluoroethoxy)ethoxy]ethoxy}phenyl)-3-[({(3R)-1-[3-(piperidin-4-yl)propanoyl]piperidin-3-yl}carbonyl)amino]propanoic acid]
5 | 16 nM |  | O=C(O)C[C@H](NC(=O)[C@@H]1CCCN(C(=O)CCC2CCNCC2)C1)c1cncc(OCCOCCOCCF)c1 [Example 5, (3S)-3-(5-{2-[2-(2-Fluoroethoxy)ethoxy]ethoxy}pyridine-3-yl)-3-[({(3R)-1-[3-(piperidin-4-yl)propanoyl]piperidin-3-yl}carbonyl)amino]propanoic acid]
6 | 16 nM |  | O=C(O)C[C@H](NC(=O)[C@@H]1CCCN(C(=O)CCC2CCNCC2)C1)c1cncc(-c2cccc(OCCF)c2)c1 [Example 6, (3S)-3-{5-[3-(2-Fluoroethoxy)phenyl]pyridin-3-yl}-3-[({(3R)-1-[3-(piperidin-4-yl)propanoyl]piperidin-3-yl}carbonyl)amino]propanoic acid]
7 | 14 nM |  | O=C(O)C[C@H](NC(=O)[C@@H]1CCCN(C(=O)CCC2CCNCC2)C1)c1cncc(-c2ccccc2OCCF)c1 [Example 8, (3S)-3-{5-[2-(2-Fluoroethoxy)phenyl]pyridin-3-yl}-3-[({(3R)-1-[3-(piperidin-4-yl)propanoyl]piperidin-3-yl}carbonyl)amino]propanoic acid]
8 | 21 nM | 21 nM | N#Cc1cc(-c2cncc([C@H](CC(=O)O)NC(=O)[C@@H]3CCCN(C(=O)CCC4CCNCC4)C3)c2)ccc1F [Example 9, (3S)-3-[5-(3-Cyano-4-fluorophenyl)pyridin-3-yl]-3-[({(3R)-1-[3-(piperidin-4-yl)propanoyl]piperidin-3-yl}carbonyl)amino]propanoic acid]
9 | 15 nM |  | N#Cc1ccc(-c2cncc([C@H](CC(=O)O)NC(=O)[C@@H]3CCCN(C(=O)CCC4CCNCC4)C3)c2)cc1F [Example 10, (3S)-3-[5-(4-Cyano-3-fluorophenyl)pyridin-3-yl]-3-[({(3R)-1-[3-(piperidin-4-yl)propanoyl]piperidin-3-yl}carbonyl)amino]propanoic acid]
10 | 14 nM |  | O=C(O)C[C@H](NC(=O)[C@@H]1CCCN(C(=O)CCC2CCNCC2)C1)c1cncc(-c2ccc(F)c([N+](=O)[O-])c2)c1 [Example 11, (3S)-3-[5-(4-Fluoro-3-nitrophenyl)pyridin-3-yl]-3-[({(3R)-1-[3-(piperidin-4-yl)propanoyl]piperidin-3-yl}carbonyl)amino]propanoic acid]
11 | 7 nM |  | N#Cc1ccc(COc2cncc([C@H](CC(=O)O)NC(=O)[C@@H]3CCCN(C(=O)CCC4CCNCC4)C3)c2)cc1F [Example 13, (3S)-3-{5-[(4-Cyano-3-fluorobenzyl)oxy]pyridin-3-yl}-3-[({(3R)-1-[3-(piperidin-4-yl)propanoyl]piperidin-3-yl}carbonyl)amino]propanoic acid]
12 | 15 nM |  | N#Cc1ccc([C@H](CC(=O)O)NC(=O)[C@@H]2CCCN(C(=O)CCC3CCNCC3)C2)cc1F [Example 14, (3S)-3-(4-Cyano-3-fluorophenyl)-3-[({(3R)-1-[3-(piperidin-4-yl)propanoyl]piperidin-3-yl}carbonyl)amino]propanoic acid]
13 | 5 nM |  | O=C(O)C[C@H](NC(=O)[C@@H]1CCCN(C(=O)CCC2CCNCC2)C1)c1cncc(C#Cc2ccc(OCCF)cc2)c1 [Example 15, (3S)-3-(5-{[4-(2-Fluoroethoxy)phenyl]ethynyl}pyridin-3-yl)-3-[({(3R)-1-[3-(piperidin-4-yl)propanoyl]piperidin-3-yl}carbonyl)amino]propanoic acid]
14 | 6 nM |  | O=C(O)C[C@H](NC(=O)[C@@H]1CCCN(C(=O)CCC2CCNCC2)C1)c1cncc(C#Cc2cccc(OCCF)c2)c1 [Example 16, (3S)-3-(5-{[3-(2-Fluoroethoxy)phenyl]ethynyl}pyridin-3-yl)-3-[({(3R)-1-[3-(piperidin-4-yl)propanoyl]piperidin-3-yl}carbonyl)amino]propanoic acid]
15 | 35 nM |  | O=C(O)C[C@H](NC(=O)[C@@H]1CCCN(C(=O)CCC2CCNCC2)C1)c1cc(F)cc(-c2ccc(OCCF)cc2)c1 [Example 17, (3S)-3-[5-Fluoro-4′-(2-fluoroethoxy)biphenyl-3-yl]-3-[({(3R)-1-[3-(piperidin-4-yl)propanoyl]piperidin-3-yl}carbonyl)amino]propanoic acid]
16 | 3 nM | 3 nM | O=C(O)C[C@H](NC(=O)[C@@H]1CCCN(C(=O)CCC2CCNCC2)C1)c1cncc(CCc2ccc(OCCF)cc2)c1 [Example 18, (3S)-3-(5-{2-[4-(2-Fluoroethoxy)phenyl]ethyl}pyridin-3-yl)-3-[({(3R)-1-[3-(piperidin-4-yl)propanoyl]piperidin-3-yl}carbonyl)amino]propanoic acid]
17 | 3 nM | 3 nM | O=C(O)C[C@H](NC(=O)[C@@H]1CCCN(C(=O)CCC2CCNCC2)C1)c1cncc(CCc2cccc(OCCF)c2)c1 [Example 19, (3S)-3-(5-{2-[3-(2-Fluoroethoxy)phenyl]ethyl}pyridin-3-yl)-3-[({(3R)-1-[3-(piperidin-4-yl)propanoyl]piperidin-3-yl}carbonyl)amino]propanoic acid]
